Data from paper PMC9108603, “Microbial Metabolite Inspired β‐Peptide Polymers Displaying Potent and Selective Antifungal Activity” (Advanced Science, 2022).
In brackets after ≈: the same amount, converted by molar mass.

Legend:
Experiment in all cases: Cytotoxicity, MTT assay
Type in all cases: cell-based
NIH 3T3 fibroblast cells = conditions: Mus musculus, NIH3T3, 24 h, 37 °C, 800 to 1.6 μg/mL, 50% cell viability
Description: (§1) Cytotoxicity assay. Cytotoxicity tests were performed on NIH 3T3 fibroblast cells, endothelial cells (HUVEC), macrophage (RAW264.7), liver cells (LO2), kidney cells (COS7) and enterocyte (NCM-460) using MTT assay. Cells were cultured in DMEM supplemented with 10% FBS, 5% penicillin, 2 mM L-glutamine and incubated at 37 °C in 5% CO 2. Cells were harvested and seeded onto 96-well plates at a density of 1.0 × 10^4 cells per well and incubated for 24 h. On each plate, wells containing growth medium only and cells in growth medium without any antifungal agent were used as the negative and positive control, […]
(§2) concentrations ranging from 800 to 1.6 μg/mL. Medium in each cell-containing well was replaced with 100 μL of the corresponding polymer solution, and the plates were incubated at 37 °C for 24 h. Then, the solution in each well was switched to 100 µL MTT solution (1 mg/mL) and the plate was incubated in the dark at 37 °C for 4 h. After centrifuge (to prevent the possible loss of formazan crystals) and removal of the supernatant, 100 μL DMSO was added to each well to dissolve the formed formazan under stirred for 20 min. Then 85 µL of the supernatant from each well was transferred to the corresponding well in a new plate, followed by absorbance measurement at 570 nm on a plate reader. Each antifungal agent was tested in triplicate in each assay, and the experiment was conducted at least twice on a different day. The percentage of cell viability in each test well, relative to the positive control (which defines 100%) w as calculated from [% fibroblast growth = (A polymer – Ablank)/(Acontrol – A blank) × 100]. The IC 50 value is the minimum concentration to inhibit 50% of fibroblast cell growth. All measurements were performed with three replicates.

enterocyte (NCM-460) = conditions: Homo sapiens, NCM460, 24 h, 37 °C, 800 to 1.6 μg/mL, 50% cell viability
Description: as §1, §2

kidney cells (COS7) = conditions: Chlorocebus aethiops, COS-7, 24 h, 37 °C, 800 to 1.6 μg/mL, 50% cell viability
Description: as §1, §2

liver cells (LO2) = conditions: 24 h, 37 °C, 800 to 1.6 μg/mL, 50% cell viability
Description: as §1, §2

macrophage (RAW264.7) = conditions: Mus musculus, 24 h, 37 °C, 800 to 1.6 μg/mL, 50% cell viability
Description: as §1, §2

`C[C@@H]1[C@H](O)[C@@H](C)/C=C/C=C/C=C/C=C/C=C/C=C/C=C/[C@H](O[C@@H]2O[C@H](C)[C@@H](O)[C@H](N)[C@@H]2O)C[C@@H]2O[C@](O)(C[C@@H](O)C[C@@H](O)[C@H](O)CC[C@@H](O)C[C@@H](O)CC(=O)O[C@H]1C)C[C@H](O)[C@H]2C(=O)O` [AmpB, amphotericin B] was tested, and the IC50 (NIH 3T3 fibroblast cells) was 1.6 µg/mL (≈ 1.73 µM), the IC50 (enterocyte (NCM-460)) was 40 µg/mL (≈ 43.3 µM) and the IC50 (kidney cells (COS7)) was 25 µg/mL (≈ 27.1 µM). For the same compound, the IC50 (liver cells (LO2)) was 77 µg/mL (≈ 83.3 µM) and the IC50 (macrophage (RAW264.7)) was 128 µg/mL (≈ 139 µM).
